From US6623741B1, “Methods and compositions for inhibition of membrane fusion-associated events including RSV transmission” (Trimeris, Inc., priority 2000, dated 2003) come the findings set out here.

This data set is described as follows: Analytical ultracentrifugation (sedimentation equilibrium). It counts as physicochemical. On the procedure:
Analytical Ultracentrifugation:
Sedimentation equilibrium experiments were performed on a Beckman Optima XL-A analytical ultracentrifuge at 4° C. Six-channel cells (12 mm optical path length) were used with an An-60 Ti rotor operated at 13,500, 16,000, 17,000, 20,000, 21,000, 24,000, 25,000, 27,500, 30,000 and 35,000 rpm. The cell radii were scanned using 0.001 cm steps with 10 averages/scan. Data were analyzed using Beckman XLA data analysis software (version 3.01 for Windows) and Beckman-Origin software (version 3.78 for Windows). […] The partial specific volumes were held constant for all models considered.
Single data files were normalized to 270 nm absorbance values using Beer's Law. The data obtained with solutions containing the DP107-like peptides were then analyzed using a single ideal species model to determine a weight-averaged molecular weight (Mw). Diagnostic plots of Mw/Mw0 vs. rpm/rpm0 and Mw vs. radial concentration were used to test for sample homogeneity as described, e.g., by McRorie & Voelker, 1993, Self-Associating Systems in the Analytical Ultracentrifuge, Beckman Instruments, Inc., Palo Alto; and Yphantis et al., 1978, in Physical Aspects of Protein Interactions: Proceedings of the Symposium on Protein Interactions, American Chemical Society Meeting, Catsimpoolas, Ed., pp. 275-303, Elsevier, Miami Beach, Fla. When systematic residuals or a Mw higher than the monomer molecular weight indicated the presence of self-association, associative models such as monomer/trimer, monomer/tetramer and monomer/dimer/tetrarner were investigated. The suitability of a particular model (i.e., the goodness of fit) was judged by the trends observed in the residuals (Johnson & Straume, 1994, in Modern Analytical Ultracentrifugation, Schuster et al., eds., pp. 37-65, Birkhauser, Boston). Using the associative model which produced random residuals when fitting individual data files, a simultaneous, global, weighted fit of multiple data files (up to nine files with different concentrations and speeds) was performed to determine the association constant and 95% confidence intervals. To convert the resulting association constant from absorbance units to concentration units, it was assumed that the absorbance of the n-mer is n times that of the monomer.
The data obtained with DP107-like/DP178-like peptide mixtures were first analyzed with a single ideal species model. When a systematic trend in residuals coupled with the Mw not equal to a precise multimer of HR1+HR2 were obtained, and alternate fitting scheme was explored. For this approach, it was assumed that the solution contained fully associated HR1-HR2 complexes and unassociated DP107-like and DP178-like peptides. The mixtures were analyzed with a two-ideal species model, choosing one species to have a molecular weight of either 28,269 Da (corresponding to three DP107-like plus three DP178-like peptides) or […] (corresponding to four DP107-like plus four DP178-like peptides).

Regarding `CC[C@H](C)[C@H](NC(=O)[C@H](Cc1ccccc1)NC(=O)[C@H](C)NC(=O)[C@H](CC(C)C)NC(=O)[C@H](CO)NC(=O)[C@H](CCC(N)=O)NC(=O)[C@H](CC(N)=O)NC(=O)[C@@H](NC(=O)[C@H](CCCCN)NC(=O)[C@H](CCC(=O)O)NC(=O)[C@H](CC(N)=O)NC(=O)[C@@H](NC(=O)[C@H](CCC(N)=O)NC(=O)[C@H](CO)NC(=O)[C@@H](NC(=O)[C@H](CO)NC(=O)[C@H](C)NC(=O)[C@H](CC(=O)O)NC(=O)[C@H](Cc1ccccc1)NC(=O)[C@H](CCC(=O)O)NC(=O)[C@H](CC(=O)O)NC(=O)[C@H](CO)NC(=O)[C@@H]1CCCN1C(=O)[C@H](Cc1ccccc1)NC(=O)[C@@H](NC(C)=O)C(C)C)[C@@H](C)CC)C(C)C)[C@@H](C)CC)C(=O)N[C@@H](CCCNC(=N)N)C(=O)N[C@@H](CCCCN)C(=O)N[C@@H](CO)C(=O)N[C@@H](CC(=O)O)C(=O)N[C@@H](CCC(=O)O)C(=O)N[C@@H](CC(C)C)C(=O)N[C@@H](CC(C)C)C(=O)N[C@@H](Cc1c[nH]cn1)C(=O)N[C@@H](CC(N)=O)C(=O)N[C@H](C(N)=O)C(C)C` [Peptide T112], the “oligomerization state in solution (in words)” value was “behaves as a monomer”. The Mw value (50 μM, 25,000, 30,000 and 35,000 rpm) was 3,984 Da.
